Measurements from PubChem BioAssay (NCI).
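Five compound concentrations were applied to cells in 96-well plates for 48 hours; endpoints were derived by simple linear interpolation of the resulting dose-response curve. At the TGI there is no net growth.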

Tests used:
Assay in all cases: inhibition of tumour cell growth, NCI panel, 48 h
MCF7 breast = tested on: MCF7 breast
KM12 colon = tested on: KM12 colon
HOP-62 NSCLC = tested on: HOP-62 NSCLC
CCRF-CEM leukemia = tested on: CCRF-CEM leukemia
LOX IMVI melanoma = tested on: LOX IMVI melanoma
UO-31 renal = tested on: UO-31 renal
U251 CNS = tested on: U251 CNS
DU-145 prostate = tested on: DU-145 prostate
OVCAR-8 ovarian = tested on: OVCAR-8 ovarian
TK-10 renal = tested on: TK-10 renal
NCI-H460 lung = tested on: NCI-H460 lung
MDA-N = tested on: MDA-N
UACC-62 melanoma = tested on: UACC-62 melanoma
SF-268 CNS = tested on: SF-268 CNS
RPMI-8226 leukemia = tested on: RPMI-8226 leukemia
NCI-H23 lung = tested on: NCI-H23 lung
SK-MEL-5 melanoma = tested on: SK-MEL-5 melanoma
HCT-15 colon = tested on: HCT-15 colon
786-0 renal = tested on: 786-0 renal
IGROV1 ovarian = tested on: IGROV1 ovarian
SF-539 CNS = tested on: SF-539 CNS
SN12C renal = tested on: SN12C renal
SW-620 colon = tested on: SW-620 colon
NCI-H226 lung = tested on: NCI-H226 lung
SK-MEL-28 melanoma = tested on: SK-MEL-28 melanoma
CAKI-1 renal = tested on: CAKI-1 renal
EKVX NSCLC = tested on: EKVX NSCLC
PC-3 prostate = tested on: PC-3 prostate
MDA-MB-231 breast = tested on: MDA-MB-231 breast
HOP-92 NSCLC = tested on: HOP-92 NSCLC
M14 melanoma = tested on: M14 melanoma
OVCAR-5 ovarian = tested on: OVCAR-5 ovarian
SF-295 CNS = tested on: SF-295 CNS
OVCAR-3 ovarian = tested on: OVCAR-3 ovarian
RXF 393 renal = tested on: RXF 393 renal
ACHN renal = tested on: ACHN renal
MOLT-4 leukemia = tested on: MOLT-4 leukemia
HS 578T breast = tested on: HS 578T breast
SK-OV-3 ovarian = tested on: SK-OV-3 ovarian
NCI/ADR-RES ovarian = tested on: NCI/ADR-RES ovarian
SNB-19 CNS = tested on: SNB-19 CNS
HCT-116 colon = tested on: HCT-116 colon
BT-549 breast = tested on: BT-549 breast
NCI-H522 lung = tested on: NCI-H522 lung
MDA-MB-435 = tested on: MDA-MB-435
MALME-3M melanoma = tested on: MALME-3M melanoma
HCC-2998 colon = tested on: HCC-2998 colon
T-47D breast = tested on: T-47D breast
UACC-257 melanoma = tested on: UACC-257 melanoma
A549 NSCLC = tested on: A549 NSCLC
HT29 colon = tested on: HT29 colon
SK-MEL-2 melanoma = tested on: SK-MEL-2 melanoma
COLO 205 colon = tested on: COLO 205 colon
K-562 leukemia = tested on: K-562 leukemia
SR leukemia = tested on: SR leukemia
HL-60(TB) leukemia = tested on: HL-60(TB) leukemia
OVCAR-4 ovarian = tested on: OVCAR-4 ovarian
A498 renal = tested on: A498 renal
SNB-75 CNS = tested on: SNB-75 CNS

## C[C@H](CCC(=O)NN)[C@H]1CC[C@H]2[C@@H]3CC[C@@H]4C[C@H](O)CC[C@]4(C)[C@H]3CC[C@]12C
MCF7 breast
  TGI: 97.1 µM
KM12 colon
  TGI: > 100 µM
HOP-62 NSCLC
  TGI: > 100 µM
CCRF-CEM leukemia
  TGI: > 72.1 µM
LOX IMVI melanoma
  TGI: > 100 µM
UO-31 renal
  TGI: > 100 µM
U251 CNS
  TGI: > 100 µM
DU-145 prostate
  TGI: > 88.8 µM
OVCAR-8 ovarian
  TGI: > 100 µM
TK-10 renal
  TGI: > 93.8 µM
NCI-H460 lung
  TGI: > 100 µM
MDA-N
  TGI: > 100 µM
UACC-62 melanoma
  TGI: > 100 µM
SF-268 CNS
  TGI: > 100 µM
RPMI-8226 leukemia
  TGI: 59.9 µM
NCI-H23 lung
  TGI: > 100 µM
SK-MEL-5 melanoma
  TGI: 56.4 µM
HCT-15 colon
  TGI: > 100 µM
786-0 renal
  TGI: > 100 µM
IGROV1 ovarian
  TGI: > 100 µM
SF-539 CNS
  TGI: > 100 µM
SN12C renal
  TGI: > 100 µM
SW-620 colon
  TGI: > 100 µM
NCI-H226 lung
  TGI: > 100 µM
SK-MEL-28 melanoma
  TGI: > 100 µM
CAKI-1 renal
  TGI: > 100 µM
EKVX NSCLC
  TGI: > 100 µM
PC-3 prostate
  TGI: > 100 µM
MDA-MB-231 breast
  TGI: > 100 µM
HOP-92 NSCLC
  TGI: > 100 µM
M14 melanoma
  TGI: 72.4 µM
OVCAR-5 ovarian
  TGI: > 100 µM
SF-295 CNS
  TGI: > 100 µM
OVCAR-3 ovarian
  TGI: > 100 µM
RXF 393 renal
  TGI: 67.2 µM
ACHN renal
  TGI: > 100 µM
MOLT-4 leukemia
  TGI: > 52.7 µM
HS 578T breast
  TGI: > 100 µM
SK-OV-3 ovarian
  TGI: > 100 µM
NCI/ADR-RES ovarian
  TGI: > 100 µM
SNB-19 CNS
  TGI: > 100 µM
HCT-116 colon
  TGI: > 100 µM
BT-549 breast
  TGI: > 100 µM
NCI-H522 lung
  TGI: > 70.1 µM
MDA-MB-435
  TGI: > 100 µM
MALME-3M melanoma
  TGI: > 100 µM
HCC-2998 colon
  TGI: > 90.6 µM
T-47D breast
  TGI: > 100 µM
UACC-257 melanoma
  TGI: > 100 µM
A549 NSCLC
  TGI: > 100 µM
HT29 colon
  TGI: > 100 µM
SK-MEL-2 melanoma
  TGI: > 100 µM
COLO 205 colon
  TGI: > 96 µM
K-562 leukemia
  TGI: 41.1 µM
SR leukemia
  TGI: 62.2 µM
HL-60(TB) leukemia
  TGI: 37.6 µM
OVCAR-4 ovarian
  TGI: > 100 µM
A498 renal
  TGI: > 100 µM

## Cc1sccc1C(=S)Nc1ccc(Cl)c(/C=N/OC(C)(C)C)c1
MCF7 breast
  TGI: 26.7 µM
KM12 colon
  TGI: 28.8 µM
HOP-62 NSCLC
  TGI: 30.6 µM
CCRF-CEM leukemia
  TGI: > 100 µM
LOX IMVI melanoma
  TGI: 73.9 µM
UO-31 renal
  TGI: 25 µM
U251 CNS
  TGI: 62.1 µM
SNB-75 CNS
  TGI: > 100 µM
DU-145 prostate
  TGI: 29 µM
OVCAR-8 ovarian
  TGI: 34.1 µM
TK-10 renal
  TGI: 36.9 µM
MDA-N
  TGI: 26.9 µM
UACC-62 melanoma
  TGI: 34.2 µM
SF-268 CNS
  TGI: 43.9 µM
RPMI-8226 leukemia
  TGI: 27 µM
NCI-H23 lung
  TGI: 34.5 µM
SK-MEL-5 melanoma
  TGI: 25.9 µM
HCT-15 colon
  TGI: 29 µM
786-0 renal
  TGI: 49.4 µM
IGROV1 ovarian
  TGI: 29.4 µM
SF-539 CNS
  TGI: > 100 µM
SN12C renal
  TGI: 25.6 µM
SW-620 colon
  TGI: > 100 µM
NCI-H226 lung
  TGI: 29.3 µM
SK-MEL-28 melanoma
  TGI: 71 µM
CAKI-1 renal
  TGI: 24.4 µM
EKVX NSCLC
  TGI: 42.4 µM
PC-3 prostate
  TGI: 32.5 µM
MDA-MB-231 breast
  TGI: 27 µM
HOP-92 NSCLC
  TGI: 35.3 µM
M14 melanoma
  TGI: 33.9 µM
OVCAR-5 ovarian
  TGI: 34.7 µM
SF-295 CNS
  TGI: 37.3 µM
OVCAR-3 ovarian
  TGI: 26.8 µM
RXF 393 renal
  TGI: 39 µM
MOLT-4 leukemia
  TGI: 30.7 µM
HS 578T breast
  TGI: 62.3 µM
SK-OV-3 ovarian
  TGI: 79.3 µM
NCI/ADR-RES ovarian
  TGI: 45.1 µM
HCT-116 colon
  TGI: > 100 µM
BT-549 breast
  TGI: 35.2 µM
NCI-H522 lung
  TGI: 26.5 µM
MDA-MB-435
  TGI: 50.9 µM
MALME-3M melanoma
  TGI: 31.1 µM
HCC-2998 colon
  TGI: 30 µM
T-47D breast
  TGI: 22.8 µM
UACC-257 melanoma
  TGI: 35.1 µM
A549 NSCLC
  TGI: 63.5 µM
HT29 colon
  TGI: 27.6 µM
SK-MEL-2 melanoma
  TGI: 28.8 µM
COLO 205 colon
  TGI: 27.3 µM
SR leukemia
  TGI: 54.7 µM
HL-60(TB) leukemia
  TGI: 38.6 µM
OVCAR-4 ovarian
  TGI: 32 µM
A498 renal
  TGI: 46.8 µM

## COC(=O)NC(Nc1ccc(Cl)cc1Cl)(C(F)(F)F)C(F)(F)F
MCF7 breast
  TGI: > 100 µM
KM12 colon
  TGI: > 100 µM
HOP-62 NSCLC
  TGI: > 100 µM
CCRF-CEM leukemia
  TGI: > 100 µM
LOX IMVI melanoma
  TGI: > 100 µM
UO-31 renal
  TGI: 94.7 µM
U251 CNS
  TGI: > 100 µM
SNB-75 CNS
  TGI: > 100 µM
DU-145 prostate
  TGI: > 100 µM
OVCAR-8 ovarian
  TGI: > 100 µM
TK-10 renal
  TGI: > 100 µM
NCI-H460 lung
  TGI: > 100 µM
MDA-N
  TGI: > 100 µM
UACC-62 melanoma
  TGI: > 100 µM
SF-268 CNS
  TGI: > 100 µM
RPMI-8226 leukemia
  TGI: > 100 µM
NCI-H23 lung
  TGI: > 100 µM
SK-MEL-5 melanoma
  TGI: > 100 µM
HCT-15 colon
  TGI: > 100 µM
786-0 renal
  TGI: > 100 µM
IGROV1 ovarian
  TGI: > 100 µM
SF-539 CNS
  TGI: > 100 µM
SN12C renal
  TGI: > 100 µM
SW-620 colon
  TGI: > 100 µM
NCI-H226 lung
  TGI: > 100 µM
SK-MEL-28 melanoma
  TGI: > 100 µM
CAKI-1 renal
  TGI: > 100 µM
EKVX NSCLC
  TGI: > 100 µM
PC-3 prostate
  TGI: > 100 µM
MDA-MB-231 breast
  TGI: > 100 µM
HOP-92 NSCLC
  TGI: > 100 µM
M14 melanoma
  TGI: > 100 µM
OVCAR-5 ovarian
  TGI: > 100 µM
SF-295 CNS
  TGI: > 100 µM
OVCAR-3 ovarian
  TGI: > 100 µM
RXF 393 renal
  TGI: > 100 µM
ACHN renal
  TGI: > 100 µM
MOLT-4 leukemia
  TGI: > 100 µM
HS 578T breast
  TGI: > 100 µM
SK-OV-3 ovarian
  TGI: > 100 µM
NCI/ADR-RES ovarian
  TGI: > 100 µM
SNB-19 CNS
  TGI: > 100 µM
HCT-116 colon
  TGI: > 100 µM
BT-549 breast
  TGI: > 100 µM
NCI-H522 lung
  TGI: > 100 µM
MDA-MB-435
  TGI: > 100 µM
MALME-3M melanoma
  TGI: > 100 µM
HCC-2998 colon
  TGI: > 100 µM
T-47D breast
  TGI: > 100 µM
UACC-257 melanoma
  TGI: > 100 µM
A549 NSCLC
  TGI: > 100 µM
HT29 colon
  TGI: > 100 µM
SK-MEL-2 melanoma
  TGI: > 100 µM
COLO 205 colon
  TGI: > 100 µM
K-562 leukemia
  TGI: > 100 µM
SR leukemia
  TGI: > 100 µM
HL-60(TB) leukemia
  TGI: > 100 µM
A498 renal
  TGI: > 100 µM
